We go through 29 molecules from US8673938B2, “Chemical compounds” (priority 2006, dated 2014).

Structures are written as SMILES.

The test addresses human 11βHSD1 enzyme (Homo sapiens (Human), UniProt P28845). As to the kind of experiment: biochemical. The note with it: read-out: % inhibition of human 11-βHSD.

Sequence of human 11βHSD1 enzyme (P28845 whole entry): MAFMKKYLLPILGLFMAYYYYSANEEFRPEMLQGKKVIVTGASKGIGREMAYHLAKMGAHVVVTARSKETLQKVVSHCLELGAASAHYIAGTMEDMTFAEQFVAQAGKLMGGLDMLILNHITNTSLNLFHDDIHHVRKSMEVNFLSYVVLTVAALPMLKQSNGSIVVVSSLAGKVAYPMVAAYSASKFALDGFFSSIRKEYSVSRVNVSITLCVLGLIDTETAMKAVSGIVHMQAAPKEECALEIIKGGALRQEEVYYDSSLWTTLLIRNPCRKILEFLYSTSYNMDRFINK
Method: The evaluation of compounds described herein was carried out using a baculovirus expressed N terminal 6-His tagged full length human 11βHSD1 enzyme(*1). […] Inhibitors of 11βHSD1 reduce the conversion of cortisone to cortisol, which is identified by an increase in signal, in the above assay.
Compounds to be tested were dissolved in dimethyl sulphoxide (DMSO) to 10 mM and diluted further in assay buffer containing 1% DMSO to 10 fold the final assay concentration. Diluted compounds were then plated into black 384 well plates (Matrix, Hudson N.H., USA).
The assay plates were incubated for 25 minutes at 37° C. after which time the reaction was stopped by the addition of 10 μl of 0.5 mM glycerrhetinic acid plus conjugated cortisol (XL665 or D2). 10 μl of anti-cortisol Cryptate was then added and the plates sealed and incubated for 6 hours at room temperature.

For orientation: inhibition means how much of the control response was suppressed. Take `CCCSc1nc(N2CCCC(CC(=O)O)C2)ccc1C(=O)NC1CCCCC1` (centres unmarked) [Example 5, 2-[1-[5-(cyclohexylcarbamoyl)-6-propylsulfanyl-pyridin-2-yl]-3-piperidyl]acetic acid]: the inhibition at 30 µM was determined as 86%.
To `CCCSc1nc(N2CCN(CC(=O)O)CC2)ccc1C(=O)NC1CCCCC1` [Example 8, 2-[4-[5-(cyclohexylcarbamoyl)-6-propylsulfanyl-pyridin-2-yl]piperazin-1-yl]acetic acid] belongs 78%; to `CCCSc1nc(N[C@H]2C3CC4CC2C[C@](C(=O)O)(C4)C3)ccc1C(=O)NC1CCCCC1` [Example 9, (3R,5S)-4-[[5-(cyclohexylcarbamoyl)-6-propylsulfanyl-pyridin-2-yl]amino]adamantane-1-carboxylic acid], 92%.
The result for `CCCSc1nc(N[C@H]2C3CC4CC2C[C@@](C(=O)O)(C4)C3)ccc1C(=O)NC1CCCCC1` [Example 10, (3R,5S)-4-[[5-(cyclohexylcarbamoyl)-6-propylsulfanyl-pyridin-2-yl]amino]adamantane-1-carboxylic acid] reads 88%; that for `CCCSc1nc(N(C)[C@H]2CC[C@H](C(=O)O)CC2)ccc1C(=O)NC1CCCCC1` [Example 11, 4-[[5-(cyclohexylcarbamoyl)-6-propylsulfanyl-pyridin-2-yl]-methyl-amino]cyclohexane-1-carboxylic acid], 83%.
To `CCCSc1nc(Oc2cccc(C(=O)O)c2)ccc1C(=O)NC1CCCCC1` [Example 13, 3-[5-(cyclohexylcarbamoyl)-6-propylsulfanyl-pyridin-2-yl]oxybenzoic acid] belongs 94%; to `CCCSc1nc(Sc2cccc(C(=O)O)c2)ccc1C(=O)NC1CCCCC1` [Example 14, 3-[5-(cyclohexylcarbamoyl)-6-propylsulfanyl-pyridin2-yl]sulfanylbenzoic acid], 78%; to `CCCSc1nc(Sc2ccc(C(=O)O)cc2)ccc1C(=O)NC1CCCCC1` [Example 15, 4-[5-(cyclohexylcarbamoyl)-6-propylsulfanyl-pyridin-2-yl]sulfanylbenzoic acid], 73%.
With `CCCSc1nc(Oc2ccc(C(=O)O)cc2)ccc1C(=O)NC1CCCCC1` [Example 16, 4-[5-(cyclohexylcarbamoyl)-6-propylsulfanyl-pyridin-2-yl]oxybenzoic acid], the inhibition at 30 µM was 43%.
To `CCCSc1nc(Oc2ccc(CCC(=O)O)cc2)ccc1C(=O)NC1CCCCC1` [Example 18, 3-[4-[5-(cyclohexylcarbamoyl)-6-propylsulfanyl-pyridin-2-yl]oxyphenyl]propanoic acid] belongs 81%; to `CCCSc1nc(Sc2ccc(OCC(=O)O)cc2)ccc1C(=O)NC1CCCCC1` [Example 19, 2-[4-[5-(cyclohexylcarbamoyl)-6-propylsulfanyl-pyridin-2-yl]sulfanylphenoxy]acetic acid], 61%; to `CCCSc1nc(Oc2ccc(OCC(=O)O)cc2)ccc1C(=O)NC1CCCCC1` [Example 20, 2-[4-[5-(cyclohexylcarbamoyl)-6-propylsulfanyl-pyridin-2-yl]oxyphenoxy]acetic acid], 89%.
Regarding `CCCSc1nc(Oc2ccc(C(C)C(=O)O)cc2)ccc1C(=O)NC1CCCCC1` (centres unmarked) [Example 21, 2-[4-[5-(cyclohexylcarbamoyl)-6-propylsulfanyl-pyridin-2-yl]oxyphenyl]propanoic acid], the inhibition at 30 µM is 88%.
Regarding `CCCSc1nc(Sc2ccc(CC(=O)O)cc2)ccc1C(=O)NC1CCCCC1` [Example 22, 2-[4-[5-(cyclohexylcarbamoyl)-6-propylsulfanyl-pyridin-2-yl]sulfanylphenyl]acetic acid], the inhibition at 30 µM was 65%.
To `CCCSc1nc(Oc2cccc(CC(=O)O)c2)ccc1C(=O)NC1CCCCC1` [Example 23, 2-[3-[5-(cyclohexylcarbamoyl)-6-propylsulfanyl-pyridin-2-yl]oxyphenyl]acetic acid] belongs 78%; to `CCCSc1nc(Sc2ccccc2C(=O)O)ccc1C(=O)NC1CCCCC1` [Example 24, 2-[5-(cyclohexylcarbamoyl)-6-propylsulfanyl-pyridin-2-yl]sulfanylbenzoic acid], 77%.
On to `CCCSc1nc(N2CCC[C@H]2C(=O)O)ccc1C(=O)NC1CCCCC1` [Example 27, (2S)-1-[5-(cyclohexylcarbamoyl)-6-propylsulfanyl-pyridin-2-yl]pyrrolidine-2-carboxylic acid], for which the inhibition at 30 µM came out at 94%.
Take `CCCSc1nc(N2CCC(C(C)C(=O)O)CC2)ccc1C(=O)NC1CCCCC1` (centres unmarked) [Example 28, 2-[1-[5-(cyclohexylcarbamoyl)-6-propylsulfanyl-pyridin-2-yl]-4-piperidyl]propanoic acid]: the inhibition at 30 µM worked out at 86%.
To `CCCSc1nc(N2CCCC(C(=O)O)CC2)ccc1C(=O)NC1CCCCC1` (centres unmarked) [Example 31, 1-[5-(cyclohexylcarbamoyl)-6-propylsulfanyl-pyridin-2-yl]azepane-4-carboxylic acid] belongs 94%.
To `CCCSc1nc(N2CCC(C)(C(=O)O)CC2)ccc1C(=O)NC1CCCCC1` [Example 32, 1-[5-(cyclohexylcarbamoyl)-6-propylsulfanyl-pyridin-2-yl]-4-methyl-piperidine-4-carboxylic acid] belongs 89%; to `CCCSc1nc(N2CCC(C(=O)O)(C(C)C)CC2)ccc1C(=O)NC1CCCCC1` [Example 35, 4-[5-(cyclohexylcarbamoyl)-6-propylsulfanyl-pyridin-2-yl]-4-propan-2-yl-piperidine-4-carboxylic acid], 93%.
`CCCSc1nc(N2CCC(C(=O)O)C(C)C2)ccc1C(=O)NC1CCCCC1` (centres unmarked) [Example 36]: the inhibition at 30 µM was 89%.
To `CCCSc1nc(N2CCCC(CCC(=O)O)C2)ccc1C(=O)NC1CCCCC1` (centres unmarked) [Example 39, 3-[1-[5-(cyclohexylcarbamoyl)-6-propylsulfanyl-pyridin-2-yl]-3-piperidyl]propanoic acid] belongs 74%.
Turning to `CCCSc1nc(N2CC(OCC(=O)O)C2)ccc1C(=O)NC1CCCCC1` [Example 40, 2-[1-[5-(cyclohexylcarbamoyl)-6-propylsulfanyl-pyridin-2-yl]azetidin-3-yl]oxyacetic acid], the inhibition at 30 µM is 87%.
To `CCCSc1nc(N2CCCC(C3(C(=O)O)CCC3)C2)ccc1C(=O)NC1CCCCC1` (centres unmarked) [Example 41, 1-[1-[5-(cyclohexylcarbamoyl)-6-propylsulfanyl-pyridin-2-yl]-3-piperidyl]cyclobutane-1-carboxylic acid] belongs 82%.
As for `CCCSc1nc(N2CCC(OCC(=O)O)C2)ccc1C(=O)NC1CCCCC1` (centres unmarked) [Example 43, 2-[1-[5-(cyclohexylcarbamoyl)-6-propylsulfanyl-pyridin-2-yl]pyrrolidin-3-yl]oxyacetic acid], the inhibition at 30 µM amounted to 92%.
`CCCSc1nc(N2CCCC(OC(C)C(=O)O)C2)ccc1C(=O)NC1CCCCC1` (centres unmarked) [Example 44]: the inhibition at 30 µM was found to be 85%.
Turning to `CCCSc1nc(N2CCCC(OC(C)(C)C(=O)O)C2)ccc1C(=O)NC1CCCCC1` (centres unmarked) [Example 45], the inhibition at 30 µM is 85%.
The result for `CCCSc1nc(N2CCCC(OCC(=O)O)C2)ccc1C(=O)NC1CCCCC1` (centres unmarked) [Example 46] reads 83%.
